Test: xn = mol fraction of the nth substance listed
Settings: 100 kPa

CCCC[n+]1ccn(C)c1.F[P-](F)(F)(F)(F)F + c1ccccc1
viscosity [mPa·s]
Settings	x2 = 0.0999	x2 = 0.2002	x2 = 0.3003	x2 = 0.3953	x2 = 0.5001	x2 = 0.6779
313.2 K	54.8	40.7	29	18.5	11.2	7.2
333.2 K	26.9	22	15.1	9.6	7.6	–
